Assay results: ChEMBL document CHEMBL1134726, “SAR studies of novel 5-substituted 2-arylindoles as nonpeptidyl GnRH receptor antagonists” (Bioorg Med Chem Lett, 2001)

What follows are compounds tested against T1, Gonadotropin-releasing hormone receptor (Rattus norvegicus, UniProt P30969) (assay: Binding affinity to rat Gonadotropin-releasing hormone receptor.).
T1 sequence (P30969 whole entry): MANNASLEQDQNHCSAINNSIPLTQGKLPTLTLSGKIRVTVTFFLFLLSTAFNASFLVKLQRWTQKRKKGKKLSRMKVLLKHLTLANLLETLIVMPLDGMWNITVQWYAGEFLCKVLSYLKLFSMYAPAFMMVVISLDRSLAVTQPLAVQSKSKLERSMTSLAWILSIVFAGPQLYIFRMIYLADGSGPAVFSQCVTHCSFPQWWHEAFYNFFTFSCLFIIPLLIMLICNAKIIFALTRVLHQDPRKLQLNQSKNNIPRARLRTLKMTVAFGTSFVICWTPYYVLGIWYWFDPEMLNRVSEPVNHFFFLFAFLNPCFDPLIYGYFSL

Q: Which IC50 does the source give for `Cc1cc(C)cc(-c2[nH]c3ccc(OC(=O)N4CCN(C)CC4)cc3c2CCNCCCCc2ccc(O)cc2)c1` here?
A: The IC50 was 0.025 µM.

Q: `Cc1cc(C)cc(-c2[nH]c3ccc(OC(=O)N4CCN(S(C)(=O)=O)CC4)cc3c2CCNCCCCc2ccc(O)cc2)c1` was tested. Which IC50 did it give?
A: The IC50 was 0.006 µM.

Q: For `CCCC(=O)N1CCN(C(=O)Oc2ccc3[nH]c(-c4cc(C)cc(C)c4)c(CCNCCCCc4ccc(O)cc4)c3c2)CC1`, which IC50 is on record?
A: The IC50 was 0.03 µM.

Q: Which IC50 does the source give for `CCOC(=O)N1CCN(C(=O)Oc2ccc3[nH]c(-c4cc(C)cc(C)c4)c(CCNCCCCc4ccc(O)cc4)c3c2)CC1` here?
A: Its IC50 is 0.032 µM.

Q: For `CC(=O)N1CCN(C(=O)Oc2ccc3[nH]c(-c4cc(C)cc(C)c4)c(CCNCCCCc4ccc(O)cc4)c3c2)CC1`, which IC50 is on record?
A: The IC50 was 0.03 µM.

Q: Which IC50 does the source give for `Cc1cc(C)cc(-c2[nH]c3ccc(OCc4ccccc4)cc3c2CCNCCCCc2ccc(O)cc2)c1` here?
A: Its IC50 is 0.1 µM.

Q: `Cc1cc(C)cc(-c2[nH]c3ccc(OC(=O)N4CCN(S(=O)(=O)C(C)C)CC4)cc3c2CCNCCCCc2ccc(O)cc2)c1` was tested. Which IC50 did it give?
A: The IC50 was 0.007 µM.

Q: For `Cc1cc(C)cc(-c2[nH]c3ccc(OC(=O)N4CCCCC4)cc3c2CCNCCCCc2ccc(O)cc2)c1`, which IC50 is on record?
A: The IC50 was 0.032 µM.

Q: How did the IC50 turn out when `CNC(=O)Oc1ccc2[nH]c(-c3cc(C)cc(C)c3)c(CCNCCCCc3ccc(O)cc3)c2c1` was run?
A: Its IC50 is 0.03 µM.

Q: `CCS(=O)(=O)N1CCN(C(=O)Oc2ccc3[nH]c(-c4cc(C)cc(C)c4)c(CCNCCCCc4ccc(O)cc4)c3c2)CC1` was tested. Which IC50 did it give?
A: The IC50 was 0.004 µM.

Q: How did the IC50 turn out when `CCCS(=O)(=O)N1CCN(C(=O)Oc2ccc3[nH]c(-c4cc(C)cc(C)c4)c(CCNCCCCc4ccc(O)cc4)c3c2)CC1` was run?
A: The IC50 was 0.012 µM.

Q: For `Cc1cc(C)cc(-c2[nH]c3ccc(OC(=O)N4CCOCC4)cc3c2CCNCCCCc2ccc(O)cc2)c1`, which IC50 is on record?
A: Its IC50 is 0.02 µM.

Q: How did the IC50 turn out when `COc1ccc2[nH]c(-c3cc(C)cc(C)c3)c(CCNCCCCc3ccc(O)cc3)c2c1` was run?
A: Its IC50 is 0.04 µM.

Q: With `Cc1cc(C)cc(-c2[nH]c3ccc(OC(=O)N4CCN(CC(N)=O)CC4)cc3c2CCNCCCCc2ccc(O)cc2)c1` as the compound, how does the IC50 read?
A: The IC50 was 0.027 µM.

Q: Which IC50 does the source give for `CCNC(=O)Oc1ccc2[nH]c(-c3cc(C)cc(C)c3)c(CCNCCCCc3ccc(O)cc3)c2c1` here?
A: Its IC50 is 0.016 µM.

Q: For `Cc1cc(C)cc(-c2[nH]c3ccc(OC(=O)N4CCNCC4)cc3c2CCNCCCCc2ccc(O)cc2)c1`, which IC50 is on record?
A: The IC50 was 0.1 µM.

Q: How did the IC50 turn out when `Cc1cc(C)cc(-c2[nH]c3ccc(OC(=O)N(C)C)cc3c2CCNCCCCc2ccc(O)cc2)c1` was run?
A: The IC50 was 0.03 µM.

Q: How did the IC50 turn out when `CCCNC(=O)Oc1ccc2[nH]c(-c3cc(C)cc(C)c3)c(CCNCCCCc3ccc(O)cc3)c2c1` was run?
A: The IC50 was 0.03 µM.

Q: Which IC50 does the source give for `CCC(=O)N1CCN(C(=O)Oc2ccc3[nH]c(-c4cc(C)cc(C)c4)c(CCNCCCCc4ccc(O)cc4)c3c2)CC1` here?
A: Its IC50 is 0.015 µM.
